In patent US20230312528A1, “2-OXO-IMIDAZOLIDINE-4-CARBOXAMIDES AS NAV1.8 INHIBITORS” (Merck Sharp & Dohme LLC, priority 2020, published 2023) one finds IC50 data, which are given here for 25 compounds.

Values joined by “and” are separate entries in the source; they are usually repeats but may differ in a detail not shown here. Identical values can stand only once.

For this test, the target named is human NaV1.8 (Homo sapiens (Human), UniProt Q9Y5Y9). As to the kind of experiment: Nav1.8 Qube automated patch-clamp assay. Format: cell-based. The note with it: human NaV1.8 stably expressed in HEK 293 cells; automated 384-well patch-clamp; resting or inactivated state not specified. Summed up: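 IC50 values from Hill-equation fits of offline percent inhibition: the 1st pulse gave resting and the 10th pulse inactivated-state inhibition. Stimulus was a 10 s, 1 Hz train to 10 mV (holding −90 mV, −67 mV interpulse) applied at room temperature to HEK293 cells stably expressing human NaV1.8 (Qube).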
In general terms: In patch-clamp work, channel activity is measured electrically.

Sequence of human NaV1.8 (Q9Y5Y9 whole entry): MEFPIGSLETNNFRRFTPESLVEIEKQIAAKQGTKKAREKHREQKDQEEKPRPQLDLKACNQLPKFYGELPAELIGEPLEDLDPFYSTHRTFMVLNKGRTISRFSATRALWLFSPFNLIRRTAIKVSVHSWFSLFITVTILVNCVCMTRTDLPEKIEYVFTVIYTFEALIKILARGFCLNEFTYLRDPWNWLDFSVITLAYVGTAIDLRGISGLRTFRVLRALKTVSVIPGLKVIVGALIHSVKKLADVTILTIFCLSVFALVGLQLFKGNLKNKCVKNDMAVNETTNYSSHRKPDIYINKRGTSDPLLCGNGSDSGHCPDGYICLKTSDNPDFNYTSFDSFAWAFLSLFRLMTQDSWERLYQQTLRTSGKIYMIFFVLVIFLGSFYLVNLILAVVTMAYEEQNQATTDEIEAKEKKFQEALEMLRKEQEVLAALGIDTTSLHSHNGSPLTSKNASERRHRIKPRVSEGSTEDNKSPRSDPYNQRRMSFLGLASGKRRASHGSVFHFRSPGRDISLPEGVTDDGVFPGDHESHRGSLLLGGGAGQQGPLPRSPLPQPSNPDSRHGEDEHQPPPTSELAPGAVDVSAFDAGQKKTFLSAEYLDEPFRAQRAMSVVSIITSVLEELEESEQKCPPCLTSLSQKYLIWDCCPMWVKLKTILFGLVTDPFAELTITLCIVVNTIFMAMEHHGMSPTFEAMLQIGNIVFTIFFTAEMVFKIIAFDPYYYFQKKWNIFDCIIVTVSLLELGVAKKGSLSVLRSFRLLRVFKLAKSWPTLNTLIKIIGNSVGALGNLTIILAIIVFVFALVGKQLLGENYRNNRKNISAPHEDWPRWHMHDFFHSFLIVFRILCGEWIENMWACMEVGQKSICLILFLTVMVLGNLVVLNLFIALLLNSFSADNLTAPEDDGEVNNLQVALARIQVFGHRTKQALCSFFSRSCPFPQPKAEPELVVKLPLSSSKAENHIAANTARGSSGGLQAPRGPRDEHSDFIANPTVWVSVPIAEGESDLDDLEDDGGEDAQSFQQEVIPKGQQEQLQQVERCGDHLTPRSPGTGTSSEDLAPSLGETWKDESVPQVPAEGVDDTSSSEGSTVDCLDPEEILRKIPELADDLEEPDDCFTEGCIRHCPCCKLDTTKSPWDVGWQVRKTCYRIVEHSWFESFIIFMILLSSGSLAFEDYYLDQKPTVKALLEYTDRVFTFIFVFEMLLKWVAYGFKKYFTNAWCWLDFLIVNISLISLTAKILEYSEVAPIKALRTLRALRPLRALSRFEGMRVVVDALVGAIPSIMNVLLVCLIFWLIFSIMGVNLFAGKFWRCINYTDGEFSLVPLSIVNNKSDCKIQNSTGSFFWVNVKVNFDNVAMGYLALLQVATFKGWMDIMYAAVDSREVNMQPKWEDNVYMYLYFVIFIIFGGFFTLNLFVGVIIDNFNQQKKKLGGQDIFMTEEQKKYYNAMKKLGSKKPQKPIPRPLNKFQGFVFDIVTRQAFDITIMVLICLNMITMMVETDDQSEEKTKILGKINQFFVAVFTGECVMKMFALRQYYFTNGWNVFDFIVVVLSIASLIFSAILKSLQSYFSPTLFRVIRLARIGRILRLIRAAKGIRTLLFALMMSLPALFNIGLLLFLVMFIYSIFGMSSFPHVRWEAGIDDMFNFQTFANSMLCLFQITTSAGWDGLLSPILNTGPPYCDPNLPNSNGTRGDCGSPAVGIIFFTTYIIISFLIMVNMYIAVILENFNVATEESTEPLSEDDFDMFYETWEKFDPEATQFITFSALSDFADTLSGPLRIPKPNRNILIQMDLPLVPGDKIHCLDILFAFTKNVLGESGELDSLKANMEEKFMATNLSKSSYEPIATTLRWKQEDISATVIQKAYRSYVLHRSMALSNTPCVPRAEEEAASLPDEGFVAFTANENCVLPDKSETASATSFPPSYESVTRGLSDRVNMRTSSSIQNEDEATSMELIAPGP

In general, IC50 refers to the midpoint of a concentration-inhibition curve. `O=C1NC[C@@H](C(=O)NC(c2ccc(F)c(Cl)c2)[C@H]2CC[C@H](C(F)(F)F)CC2)N1` (single isomer, unassigned) [Example 32B, (4S)—N—((R or S)-(3-chloro-4-fluorophenyl)(trans-4-(trifluoro-methyl)cyclohexyl)methyl)-2-oxoimidazolidine-4-carboxamide]: half-maximal inhibition (IC50) was put at 67 nM.

For the compound `O=C1NC[C@@H](C(=O)NC(c2ccc(OCC(F)(F)F)nc2)c2ccc(F)c(Cl)c2F)N1` (single isomer, unassigned) [Example 33A, (S)—N—((R or S)-(3-chloro-2,4-difluorophenyl)(6-(2,2,2-trifluoroethoxy)pyridin-3-yl)methyl)-2-oxoimidazolidine-4-carboxamide], the concentration for half-maximal inhibition (IC50) came to 1.3 nM.

Compound `O=C1NC[C@@H](C(=O)NC(c2ccc(OCC(F)(F)F)nc2)c2ccc(F)c(Cl)c2F)N1` (single isomer, unassigned) [Example 33B, (S)—N—((R or S)-(3-chloro-2,4-difluorophenyl)(6-(2,2,2-trifluoroethoxy)pyridin-3-yl)methyl)-2-oxoimidazolidine-4-carboxamide] registered an IC50 of 39 nM.

Compound `O=C1NC[C@@H](C(=O)NC(c2ccc(F)c(Cl)c2F)[C@H]2C[C@H](C(F)(F)F)C2)N1` (single isomer, unassigned) [Example 34A, (S)—N—((R or S)-(3-chloro-2,4-difluorophenyl)(trans-3-(trifluoromethyl)cyclobutyl)methyl)-2-oxoimidazolidine-4-carboxamide] returned an IC50 of 3.8 nM.

Take `O=C1NC[C@@H](C(=O)NC(c2ccc(F)c(Cl)c2F)[C@H]2C[C@H](C(F)(F)F)C2)N1` (single isomer, unassigned) [Example 34B, (S)—N—((R or S)-(3-chloro-2,4-difluorophenyl)(trans-3-(trifluoromethyl)cyclobutyl)methyl)-2-oxoimidazolidine-4-carboxamide]: the midpoint of inhibition, the IC50, lay at 76 nM.

For `O=C1NC[C@@H](C(=O)NC(c2cnc(OCC(F)(F)F)s2)c2ccc(F)c(Cl)c2F)N1` (single isomer, unassigned) [Example 35A, (S)-N-((R or S)-(3-chloro-2,4-difluorophenyl)(2-(2,2,2-trifluoroethoxy)thiazol-5-yl)methyl)-2-oxoimidazolidine-4-carboxamide], the IC50 worked out at 2.4 nM.

Regarding `O=C1NC[C@@H](C(=O)NC(c2cnc(OCC(F)(F)F)s2)c2ccc(F)c(Cl)c2F)N1` (single isomer, unassigned) [Example 35B, (S)-N-((R or S)-(3-chloro-2,4-difluorophenyl)(2-(2,2,2-trifluoroethoxy)thiazol-5-yl)methyl)-2-oxoimidazolidine-4-carboxamide], half-maximal inhibition (IC50) was put at 64 nM.

Take `O=C1NC[C@@H](C(=O)NC(c2cnc(OC(F)F)s2)c2ccc(F)c(Cl)c2F)N1` (single isomer, unassigned) [Example 36A, (S)-N-((R or S)-(3-chloro-2,4-difluorophenyl)(2-(difluoromethoxy)thiazol-5-yl)methyl)-2-oxoimidazolidine-4-carboxamide]: the IC50 stood at 12 nM.

As to `O=C1NC[C@@H](C(=O)NC(c2cnc(OC(F)F)s2)c2ccc(F)c(Cl)c2F)N1` (single isomer, unassigned) [Example 36B, (S)-N-((R or S)-(3-chloro-2,4-difluorophenyl)(2-(difluoromethoxy)thiazol-5-yl)methyl)-2-oxoimidazolidine-4-carboxamide], half-maximal inhibition (IC50) was put at 186 nM.

For the compound `O=C1NC[C@@H](C(=O)NC(c2ccc(F)c(Cl)c2F)C2CC3(C2)CC(F)(F)C3)N1` (single isomer, unassigned) [Example 37, (S)-N-((R or S)-(3-chloro-2,4-difluorophenyl)(6,6-difluorospiro[3.3]heptan-2-yl)methyl)-2-oxoimidazolidine-4-carboxamide], 11 nM corresponded to half-maximal inhibition (IC50).

With `O=C1NC[C@@H](C(=O)NC(c2cnc(C(F)(F)F)c(Cl)c2)c2ccc(F)c(Cl)c2F)N1` (single isomer, unassigned) [Example 38, (S)-N-((R or S)-(3-chloro-2,4-difluorophenyl)(5-chloro-6-(trifluoromethyl)pyridin-3-yl)methyl)-2-oxoimidazolidine-4-carboxamide], the IC50 is 1.1 nM.

In the case of `O=C1NC[C@@H](C(=O)NC(c2ccc(OC(F)(F)F)c(Cl)c2)c2ccc(OC(F)(F)F)cn2)N1` (single isomer, unassigned) [Example 39A, (S)—N—((R or S)-(3-chloro-4-(trifluoromethoxy)phenyl)(5-(trifluoromethoxy)pyridin-2-yl)methyl)-2-oxoimidazolidine-4-carboxamide], the IC50 worked out at 1.3 nM.

In the case of `O=C1NC[C@@H](C(=O)NC(c2ccc(OC(F)(F)F)c(Cl)c2)c2ccc(OC(F)(F)F)cn2)N1` (single isomer, unassigned) [Example 39B, (S)—N—((R or S)-(3-chloro-4-(trifluoromethoxy)phenyl)(5-(trifluoromethoxy)pyridin-2-yl)methyl)-2-oxoimidazolidine-4-carboxamide], the IC50 turned out to be 2.5 nM.

`O=C1NC[C@@H](C(=O)NC(c2ccc(OC(F)(F)F)cc2)c2ccc(Cl)c(C3CC3)n2)N1` (single isomer, unassigned) [Example 40A, (S)-N-((R or S)-(5-chloro-6-cyclopropylpyridin-2-yl)(4-(trifluoromethoxy)phenyl)methyl)-2-oxoimidazolidine-4-carboxamide] returned an IC50 of 21 nM.

For the compound `O=C1NC[C@@H](C(=O)NC(c2ccc(OC(F)(F)F)cc2)c2ccc(Cl)c(C3CC3)n2)N1` (single isomer, unassigned) [Example 40B, (S)-N-((R or S)-(5-chloro-6-cyclopropylpyridin-2-yl)(4-(trifluoromethoxy)phenyl)methyl)-2-oxoimidazolidine-4-carboxamide], the IC50 came to 3.5 nM.

Compound `O=C1NC[C@@H](C(=O)NC(c2ccc(OC(F)(F)F)c(Cl)c2)c2cnn(C(F)(F)F)c2)N1` (single isomer, unassigned) [Example 41A, (S)—N—((R or S)-(3-chloro-4-(trifluoromethoxy)phenyl)(1-(trifluoromethyl)-1H-pyrazol-4-yl)-l3-methyl)-2-oxoimidazolidine-4-carboxamide] came in with an IC50 of 1.7 nM.

Compound `O=C1NC[C@@H](C(=O)NC(c2ccc(OC(F)(F)F)c(Cl)c2)c2cnn(C(F)(F)F)c2)N1` (single isomer, unassigned) [Example 41B, (S)—N—((R or S)-(3-chloro-4-(trifluoromethoxy)phenyl)(1-(trifluoromethyl)-1H-pyrazol-4-yl)-l3-methyl)-2-oxoimidazolidine-4-carboxamide] displayed an IC50 of 16 nM.

For the compound `O=C1NC[C@@H](C(=O)NC(c2cnc(OC(F)F)c(F)c2)c2ccc(F)c(Cl)c2F)N1` (single isomer, unassigned) [Example 42, (S)-N-((R or S)-(3-chloro-2,4-difluorophenyl)(6-(difluoromethoxy)-5-fluoropyridin-3-yl)methyl)-2-oxoimidazolidine-4-carboxamide], the midpoint of inhibition, the IC50, lay at 190 nM.

As for `O=C1NC[C@@H](C(=O)NC(c2ccc(C(F)F)nc2)c2ccc(F)c(Cl)c2F)N1` (single isomer, unassigned) [Example 43, (S)-N-((R or S)-(3-chloro-2,4-difluorophenyl)(6-(difluoromethyl)pyridin-3-yl)methyl)-2-oxoimidazolidine-4-carboxamide], half-maximal inhibition (IC50) was put at 13 nM.

As to `O=C1NC[C@@H](C(=O)NC(c2cnc(C(F)(F)F)c(F)c2)c2ccc(F)c(Cl)c2F)N1` (single isomer, unassigned) [Example 44, (S)-N-((R or S)-(3-chloro-2,4-difluoro-phenyl)(5-fluoro-6-(trifluoromethyl)pyridin-3-yl)methyl)-2-oxoimidazolidine-4-carboxamide], the IC50 is 3.1 nM.

`O=C1NC[C@@H](C(=O)NC(c2ccc(OC(F)(F)F)nc2)c2ccc(F)c(C(F)(F)F)n2)N1` (single isomer, unassigned) [Example 45A, (S)-N-((R or S)-(5-fluoro-6-(trifluoro-methyl)pyridin-2-yl)(6-(trifluoromethoxy)pyridin-3-yl)methyl)-2-oxoimidazolidine-4-carboxamide] returned an IC50 of 10 nM.

As to `O=C1NC[C@@H](C(=O)NC(c2ccc(OC(F)(F)F)nc2)c2ccc(F)c(C(F)(F)F)n2)N1` (single isomer, unassigned) [Example 45B, (S)-N-((R or S)-(5-fluoro-6-(trifluoro-methyl)pyridin-2-yl)(6-(trifluoromethoxy)pyridin-3-yl)methyl)-2-oxoimidazolidine-4-carboxamide], the 50% inhibitory concentration (IC50) is 125 nM.

As for `O=C1NC[C@@H](C(=O)NC(c2cnc(OCC(F)(F)F)c(F)c2)c2ccc(F)c(C(F)(F)F)n2)N1` (single isomer, unassigned) [Example 46B, (S)-N-((R or S)-(5-fluoro-6-(2,2,2-trifluoroethoxy)pyridin-3-yl)(5-fluoro-6-(trifluoromethyl)pyridin-2-yl)methyl)-2-oxoimidazolidine-4-carboxamide], the IC50 was 27 nM and 6 nM.

For `O=C1NC[C@@H](C(=O)NC(c2ccc(OC(F)(F)F)c(Cl)c2)c2coc(C(F)(F)F)n2)N1` (single isomer, unassigned) [Example 47A, (S)-N-((R or S)-(3-chloro-4-(trifluoro-methoxy)phenyl)(2-(trifluoromethyl)oxazo 1-4-yl)methyl)-2-oxoimidazolidine-4-carboxamide], the IC50 is 5.2 nM.

As to `O=C1NC[C@@H](C(=O)NC(c2ccc(OC(F)(F)F)c(Cl)c2)c2coc(C(F)(F)F)n2)N1` (single isomer, unassigned) [Example 47B, (S)-N-((R or S)-(3-chloro-4-(trifluoro-methoxy)phenyl)(2-(trifluoromethyl)oxazo 1-4-yl)methyl)-2-oxoimidazolidine-4-carboxamide], the IC50 came out at 3.9 nM.
